Results from patent publication US20070129436A1, “Agent for Suppressing Body Fat Accumulation” (YAMAHA HATSUDOKI KABUSHIKI KAISHA, priority 2005, published 2007).

Legend:
[1] = system: obese model mice fed with a high-fat diet; test: Effect of astaxanthin monoester on obese model mice fed with a high-fat diet; type: in vivo, male C57BL/6J strain mice
Experimental: Astaxanthin was administered to obese model mice fed with a high-fat diet, and the change in body weight, the amount of subcutaneous fat (in the inguinal region and the back), the amount of visceral fat (around the reproductive organs and around the kidney), and the liver weight were examined in the following manner.
Four week old male C57BL/6J strain mice (SPF) purchased from CHARLES RIVER LABORATORIES JAPAN, INC. were used. The mice were preliminarily fed for 8 days and used for the test after they reached the age of 5 weeks. The mice were divided into three groups of 8 each, that is, a normal diet group, a high-fat diet group, and a high-fat diet+astaxanthin (AX) group, so that the average body weight was equal among the groups.
During the preliminary feeding period, the mice were given an ordinary powder diet (MF, Oriental Yeast Co., Ltd.), and during the test period of 16 weeks, the mice were given the ordinary powder diet or a high-fat diet having the composition shown in Table 1 below. As to drinking water, the mice were allowed to drink freely sterile distilled water from a water supply bottle.
The astaxanthin monoester prepared in Preparation Example 1 was dissolved in an olive oil (Wako Pure Chemical Industries, Ltd.) to prepare a solution containing astaxanthin monoester at a concentration of 60 mg/mL. This solution was administered to the high-fat diet+AX group and the olive oil to the other two groups in a volume of 0.05 mL/10 g body weight every day for 16 weeks from the start of the test (at the age of 5 weeks) to the age of 21 weeks, using a probe for oral administration in the mice.
During the test period, the body weight was measured once a week using a scale. At the end of the test, the body weight was measured, and thereafter, the mice were fasted overnight and sacrificed by collecting blood from the heart. Then, the liver, the adipose tissue in the inguinal region, the adipose tissue around the reproductive organs, the adipose tissue around the kidney, and the adipose tissue in the back were collected and the weights thereof were measured.
The different types of data obtained were expressed as average values±standard errors for each group. In order to test for statistically significant differences between the high-fat diet group and the high-fat diet+AX group or the normal diet group, a multiple comparison test (ANOVA) was performed using an analysis software (Stat View, Abacus Inc., USA), and a comparison between the groups was performed using Fisher's PLSD multiple comparison test. Differences were considered statistically significant when p<0.05.

[2] = system: Human umbilical vein endothelial cells (HUVECs); test: Measurement of 50% lethal concentration for HUVEC (alamarBlue); type: cell-based
Experimental: Human umbilical vein endothelial cells (HUVECs) (ATCC CRL-1730) were obtained from American Type Culture Collection and precultivated in an Endothelial Cell Growth Medium (CELL APPLICATIONS, USA) containing 10% bovine fetal serum supplemented with 1% Antibiotic-Antimycotic (GIBCO BRL, USA) under a 5% CO2 atmosphere at 37° C.
A Matrigel matrix (BD Biosciences, USA) was melted and kept at 4° C. on ice, and then, 50 μL of the matrix were transferred to each well of a 96-well tissue culture plate. The plate was incubated at 37° C. for at least one hour to solidify the matrix solution.
On the other hand, the astaxanthin monoester obtained in Preparation Example 1 was dissolved in dimethylsulfoxide (DMSO), and then diluted with distilled water to prepare stock test solutions in which the astaxanthin monoester was contained in 40 (v/v) % DMSO at 25000, 2500, 250, 25, and 2.5 μM, respectively. […]
After the incubation, 20 μL of a 90% alamarBlue reagent were added to individual wells, and incubated for an additional 6 hours. Then, the fluorescence intensity of each well was measured at an excitation wavelength of 530 nm and an emission wavelength of 590 nm using a Spectrafluor Plus plate reader to count the number of living cells. […] The 50% lethal concentration was calculated as the concentration at which the number of living cells was 50% of the number of cells at the start of the experiment.

[3] = high-fat diet+AX vs high-fat diet group, oral daily for 16 weeks, end of test, FIG. 2
[4] = high-fat diet+AX vs high-fat diet group, oral daily for 16 weeks, end of test, FIG. 3

Substance: astaxanthin monoester
- increase in body weight ([1]; high-fat diet+AX group vs high-fat diet group, oral, 60 mg/mL in olive oil, 0.05 mL/10 g body weight every day for 16 weeks, FIG. 1): tended to be distinctly suppressed
- amount of fat accumulation in subcutaneous fat (weight) [1, 3]: significantly suppressed
- amount of fat accumulation in visceral fat (weight) [1, 3]: significantly suppressed
- proportion of the liver weight to body weight [1, 4]: approached that in the case of the normal diet
- proportions of all of the adipose tissues to body weight (increase) [1, 4]: significantly suppressed
- LC50 ([2]; 72 hours incubation, 250 μM = maximum concentration dissolved in DMSO): ≥ 250 µM
- toxicity ([2]; conclusion from the LC50 for HUVECs): low
